# Results: patent US8362075B2, “Cyclohexyl sulphones for treatment of cancer” (Merck Sharp & Dohme Corp., priority 2005, dated 2013)
# System: Cells expressing Notch (ALL-SIL, DND-41, HPB-ALL or TALL-1)
# Assay: Assay for Cell Cycle Arrest (propidium iodide, FACS)
# Assay type: cell-based
# Conditions: concentrations up to 10 μM, incubation typically 4-8 days
# Method: Assay for Cell Cycle Arrest Cells expressing Notch (ALL-SIL, DND-41, HPB-ALL or TALL-1) (Weng et al, Science, 306 (2004), 269-71) were incubated in the presence or absence of a compound of the instant invention (e.g. the compound of Example 39 below) at concentrations up to 10 μM. At the end of the incubation (typically 4-8 days), the cells were collected, fixed in 70% ethanol on ice for >2 hours, washed, then labelled for 15 min at 37° C. with propidium iodide (0.2 mg/ml) (PI) in the presence of 0.1% Triton X100 and 0.2 mg/ml RNase and subjected to FACS analysis. […] Assay for Apoptosis
smiles,measurement,value
"O=C(O)CC[C@H]1CC[C@@](c2cc(F)ccc2F)(S(=O)(=O)c2ccc(Cl)cc2)CC1 [Example 39, cis-4-[(4-chlorophenyl)sulfonyl]-4-(2,5-difluorophenyl)cyclohexanepropanoic acid]",cell cycle populations versus untreated controls,"severe loss of G2- and S-phase populations, consistent with G0/G1 arrest"
